Measured values from ChEMBL document CHEMBL3351767, “The discovery of Polo-like kinase 4 inhibitors: design and optimization of spiro[cyclopropane-1,3'[3H]indol]-2'(1'H).ones as orally bioavailable antitumor agents” (J Med Chem, 2015).
Values after ≈ are worked out from the molar mass of the structure shown.

Legend:
[1] = Half life in mouse liver microsomes at 1 uM in presence of NADPH by LC-MS method; type: ADME
[2] = Protein binding in plasma (unknown origin); type: ADME, cell-free; conditions: read-out: PPB (converted)
Cytochrome P450 2D6 = Cytochrome P450 2D6 (Homo sapiens, UniProt P10635); experiment: (§1) Inhibition of CYP2D6 (unknown origin) using AMMC substrate after 45 mins by fluorescence assay; type: ADME
Sequence of Cytochrome P450 2D6 (P10635 whole entry, the tested form may be a part): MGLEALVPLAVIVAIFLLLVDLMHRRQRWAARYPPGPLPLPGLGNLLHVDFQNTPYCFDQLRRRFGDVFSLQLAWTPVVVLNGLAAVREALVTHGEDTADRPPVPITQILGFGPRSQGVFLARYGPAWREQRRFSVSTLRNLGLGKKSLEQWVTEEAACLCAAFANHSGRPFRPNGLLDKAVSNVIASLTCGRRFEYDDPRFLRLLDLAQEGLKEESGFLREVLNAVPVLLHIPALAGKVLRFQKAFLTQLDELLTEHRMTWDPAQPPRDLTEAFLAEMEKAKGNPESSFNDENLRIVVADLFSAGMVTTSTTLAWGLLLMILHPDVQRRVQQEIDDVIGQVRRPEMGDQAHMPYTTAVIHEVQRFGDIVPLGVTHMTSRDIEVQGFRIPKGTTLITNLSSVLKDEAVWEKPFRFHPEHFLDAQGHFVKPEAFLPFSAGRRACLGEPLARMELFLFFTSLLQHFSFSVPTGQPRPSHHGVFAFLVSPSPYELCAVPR

[3] = molecular target: T1, Serine/threonine-protein kinase PLK4 (Homo sapiens, UniProt O00444); experiment: Inhibition of human N-terminal GST-tagged PLK4 (1 to 391 residues) expressed in Escherichia coli incubated for 30 mins by ELISA method
T1 sequence (O00444 whole entry): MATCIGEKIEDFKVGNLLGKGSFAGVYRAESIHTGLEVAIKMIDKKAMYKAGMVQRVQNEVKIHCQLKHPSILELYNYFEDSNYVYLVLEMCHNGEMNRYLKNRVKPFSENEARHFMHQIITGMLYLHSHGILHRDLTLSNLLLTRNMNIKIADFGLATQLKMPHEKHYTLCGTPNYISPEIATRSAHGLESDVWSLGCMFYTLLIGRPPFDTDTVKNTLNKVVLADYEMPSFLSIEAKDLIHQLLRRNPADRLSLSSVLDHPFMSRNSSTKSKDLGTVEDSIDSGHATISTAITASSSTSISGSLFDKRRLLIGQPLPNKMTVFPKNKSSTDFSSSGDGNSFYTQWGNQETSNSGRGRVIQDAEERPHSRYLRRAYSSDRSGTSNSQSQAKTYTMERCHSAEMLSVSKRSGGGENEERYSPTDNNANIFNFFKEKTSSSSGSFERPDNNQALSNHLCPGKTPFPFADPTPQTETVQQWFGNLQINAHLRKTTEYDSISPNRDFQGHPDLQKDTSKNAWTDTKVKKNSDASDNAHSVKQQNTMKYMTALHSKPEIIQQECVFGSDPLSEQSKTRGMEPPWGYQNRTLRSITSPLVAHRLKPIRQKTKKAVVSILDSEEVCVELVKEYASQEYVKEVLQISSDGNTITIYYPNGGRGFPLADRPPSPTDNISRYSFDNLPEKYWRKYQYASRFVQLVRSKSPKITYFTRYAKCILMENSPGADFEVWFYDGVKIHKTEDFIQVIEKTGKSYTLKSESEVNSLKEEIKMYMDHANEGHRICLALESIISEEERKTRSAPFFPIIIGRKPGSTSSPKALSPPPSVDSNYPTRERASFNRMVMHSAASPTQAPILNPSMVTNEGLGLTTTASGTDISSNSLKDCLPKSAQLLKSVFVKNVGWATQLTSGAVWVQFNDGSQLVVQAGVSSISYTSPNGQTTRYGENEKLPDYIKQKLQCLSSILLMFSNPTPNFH

Cytochrome P450 3A4 = Cytochrome P450 3A4 (Homo sapiens, UniProt P08684); experiment: Inhibition of CYP3A4 (unknown origin) using BFC substrate after 30 mins by fluorescence assay; type: ADME
Sequence of Cytochrome P450 3A4 (P08684 whole entry): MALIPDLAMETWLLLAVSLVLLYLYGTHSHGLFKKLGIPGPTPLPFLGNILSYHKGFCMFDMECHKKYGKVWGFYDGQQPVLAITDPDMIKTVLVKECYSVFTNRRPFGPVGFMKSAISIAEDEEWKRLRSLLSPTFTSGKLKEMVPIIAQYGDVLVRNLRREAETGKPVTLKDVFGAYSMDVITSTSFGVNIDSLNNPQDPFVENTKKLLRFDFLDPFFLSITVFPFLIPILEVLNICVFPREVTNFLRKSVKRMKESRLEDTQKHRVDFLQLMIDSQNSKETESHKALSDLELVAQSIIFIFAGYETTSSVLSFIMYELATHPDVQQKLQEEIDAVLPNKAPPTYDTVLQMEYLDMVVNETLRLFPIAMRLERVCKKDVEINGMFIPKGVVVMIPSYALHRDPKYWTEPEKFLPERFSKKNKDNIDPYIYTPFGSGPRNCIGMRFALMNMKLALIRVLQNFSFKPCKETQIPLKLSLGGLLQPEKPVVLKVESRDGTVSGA

[4] = molecular target: Serine/threonine-protein kinase PLK2 (Homo sapiens, UniProt Q9NYY3); experiment: Inhibition of PLK2 (unknown origin) by FRET-based homogeneous assay
Sequence of Serine/threonine-protein kinase PLK2 (Q9NYY3 whole entry): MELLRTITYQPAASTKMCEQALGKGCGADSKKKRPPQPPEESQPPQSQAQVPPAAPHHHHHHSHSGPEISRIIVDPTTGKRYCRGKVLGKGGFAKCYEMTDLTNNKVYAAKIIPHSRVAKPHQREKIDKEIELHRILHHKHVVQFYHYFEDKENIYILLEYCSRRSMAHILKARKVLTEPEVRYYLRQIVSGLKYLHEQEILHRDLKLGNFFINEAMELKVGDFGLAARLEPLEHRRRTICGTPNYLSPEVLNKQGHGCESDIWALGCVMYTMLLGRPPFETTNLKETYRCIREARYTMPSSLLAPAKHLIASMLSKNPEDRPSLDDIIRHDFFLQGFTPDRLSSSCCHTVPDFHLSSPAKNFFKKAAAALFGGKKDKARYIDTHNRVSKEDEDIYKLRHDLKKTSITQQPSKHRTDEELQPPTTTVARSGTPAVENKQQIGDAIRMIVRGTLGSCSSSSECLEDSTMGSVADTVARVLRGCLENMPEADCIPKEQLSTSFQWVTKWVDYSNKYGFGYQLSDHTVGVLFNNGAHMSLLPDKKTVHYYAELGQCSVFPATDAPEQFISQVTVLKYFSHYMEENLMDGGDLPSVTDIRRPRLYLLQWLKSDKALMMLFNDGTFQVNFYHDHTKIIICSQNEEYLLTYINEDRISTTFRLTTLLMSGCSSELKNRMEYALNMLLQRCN

[5] = Cmax in SCID mouse at 50 mg/kg, ip after 8 hrs by LCMS/MS method; type: ADME, organism-based; design: dose 50 mg/kg, route intraperitoneal; conditions: in vivo
[6] = Half life in human liver microsomes at 1 uM in presence of NADPH by LC-MS method; type: ADME
Aurora kinase B = Aurora kinase B (Homo sapiens, UniProt Q96GD4); experiment: Inhibition of AURKB (unknown origin) by FRET-based homogeneous assay
[7] = molecular target: Serine/threonine-protein kinase PLK3 (Homo sapiens, UniProt Q9H4B4); experiment: Inhibition of PLK3 (unknown origin) by FRET-based homogeneous assay
Sequence of Serine/threonine-protein kinase PLK3 (Q9H4B4 whole entry): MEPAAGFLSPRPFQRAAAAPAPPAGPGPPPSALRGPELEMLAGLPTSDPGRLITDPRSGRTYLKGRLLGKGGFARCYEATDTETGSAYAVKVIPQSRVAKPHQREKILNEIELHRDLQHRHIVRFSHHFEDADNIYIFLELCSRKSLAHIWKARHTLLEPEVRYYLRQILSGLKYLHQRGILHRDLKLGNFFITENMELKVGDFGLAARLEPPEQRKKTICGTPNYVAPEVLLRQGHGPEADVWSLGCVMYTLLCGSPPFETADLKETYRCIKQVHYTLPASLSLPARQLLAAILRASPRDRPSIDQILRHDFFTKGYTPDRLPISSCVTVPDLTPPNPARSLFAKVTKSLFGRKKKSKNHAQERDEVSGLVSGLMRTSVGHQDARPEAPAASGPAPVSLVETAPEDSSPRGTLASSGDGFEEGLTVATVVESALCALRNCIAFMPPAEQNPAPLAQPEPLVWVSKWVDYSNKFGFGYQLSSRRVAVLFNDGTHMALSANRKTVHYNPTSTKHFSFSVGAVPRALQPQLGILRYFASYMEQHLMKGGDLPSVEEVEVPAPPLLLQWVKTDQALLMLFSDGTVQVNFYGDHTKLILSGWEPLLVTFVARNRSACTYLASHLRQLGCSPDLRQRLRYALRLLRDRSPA

[8] = molecular target: Serine/threonine-protein kinase PLK1 (Homo sapiens, UniProt P53350); experiment: Inhibition of PLK1 (unknown origin) by FRET-based homogeneous assay
Sequence of Serine/threonine-protein kinase PLK1 (P53350 whole entry): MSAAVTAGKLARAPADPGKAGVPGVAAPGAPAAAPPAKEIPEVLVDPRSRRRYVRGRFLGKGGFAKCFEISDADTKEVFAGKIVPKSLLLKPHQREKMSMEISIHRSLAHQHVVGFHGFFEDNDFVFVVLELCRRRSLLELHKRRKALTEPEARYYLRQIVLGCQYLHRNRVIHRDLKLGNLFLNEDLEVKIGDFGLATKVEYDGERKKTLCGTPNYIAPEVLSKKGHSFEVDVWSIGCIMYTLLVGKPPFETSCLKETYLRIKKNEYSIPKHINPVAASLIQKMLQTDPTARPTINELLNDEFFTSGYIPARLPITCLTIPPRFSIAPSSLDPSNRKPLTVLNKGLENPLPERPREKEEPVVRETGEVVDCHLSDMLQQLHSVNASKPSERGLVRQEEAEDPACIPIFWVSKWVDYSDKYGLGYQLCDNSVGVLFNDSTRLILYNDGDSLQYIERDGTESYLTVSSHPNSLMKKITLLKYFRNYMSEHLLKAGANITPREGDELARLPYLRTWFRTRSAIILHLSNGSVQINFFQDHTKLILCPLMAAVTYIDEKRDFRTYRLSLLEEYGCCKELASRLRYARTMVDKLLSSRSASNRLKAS

[9] = Aqueous solubility at pH 7.4; type: physicochemical; conditions: buffer
CYP1A2 = molecular target: T2, CYP1A2 (Homo sapiens, UniProt P05177); experiment: (§2) Inhibition of CYP1A2 (unknown origin) using CEC substrate after 15 mins by fluorescence assay; type: ADME; conditions: probe CEC
T2 sequence (P05177 whole entry): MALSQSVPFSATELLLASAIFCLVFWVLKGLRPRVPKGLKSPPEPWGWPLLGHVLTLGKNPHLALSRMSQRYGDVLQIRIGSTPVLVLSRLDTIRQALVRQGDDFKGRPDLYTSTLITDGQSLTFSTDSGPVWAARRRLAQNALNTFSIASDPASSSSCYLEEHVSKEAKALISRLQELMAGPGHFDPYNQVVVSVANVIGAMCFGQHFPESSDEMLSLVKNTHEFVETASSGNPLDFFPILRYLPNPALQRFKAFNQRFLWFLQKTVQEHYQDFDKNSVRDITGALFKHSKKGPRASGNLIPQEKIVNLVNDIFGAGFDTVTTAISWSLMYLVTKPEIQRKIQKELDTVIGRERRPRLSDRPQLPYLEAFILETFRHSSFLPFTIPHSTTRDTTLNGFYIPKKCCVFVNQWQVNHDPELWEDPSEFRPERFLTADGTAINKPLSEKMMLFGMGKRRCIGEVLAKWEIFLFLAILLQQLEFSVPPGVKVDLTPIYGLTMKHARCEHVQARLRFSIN

[10] = molecular target: Vascular endothelial growth factor receptor 2 (Homo sapiens, UniProt P35968); experiment: Inhibition of KDR (unknown origin) by FRET-based homogeneous assay
Sequence of Vascular endothelial growth factor receptor 2 (P35968 whole entry): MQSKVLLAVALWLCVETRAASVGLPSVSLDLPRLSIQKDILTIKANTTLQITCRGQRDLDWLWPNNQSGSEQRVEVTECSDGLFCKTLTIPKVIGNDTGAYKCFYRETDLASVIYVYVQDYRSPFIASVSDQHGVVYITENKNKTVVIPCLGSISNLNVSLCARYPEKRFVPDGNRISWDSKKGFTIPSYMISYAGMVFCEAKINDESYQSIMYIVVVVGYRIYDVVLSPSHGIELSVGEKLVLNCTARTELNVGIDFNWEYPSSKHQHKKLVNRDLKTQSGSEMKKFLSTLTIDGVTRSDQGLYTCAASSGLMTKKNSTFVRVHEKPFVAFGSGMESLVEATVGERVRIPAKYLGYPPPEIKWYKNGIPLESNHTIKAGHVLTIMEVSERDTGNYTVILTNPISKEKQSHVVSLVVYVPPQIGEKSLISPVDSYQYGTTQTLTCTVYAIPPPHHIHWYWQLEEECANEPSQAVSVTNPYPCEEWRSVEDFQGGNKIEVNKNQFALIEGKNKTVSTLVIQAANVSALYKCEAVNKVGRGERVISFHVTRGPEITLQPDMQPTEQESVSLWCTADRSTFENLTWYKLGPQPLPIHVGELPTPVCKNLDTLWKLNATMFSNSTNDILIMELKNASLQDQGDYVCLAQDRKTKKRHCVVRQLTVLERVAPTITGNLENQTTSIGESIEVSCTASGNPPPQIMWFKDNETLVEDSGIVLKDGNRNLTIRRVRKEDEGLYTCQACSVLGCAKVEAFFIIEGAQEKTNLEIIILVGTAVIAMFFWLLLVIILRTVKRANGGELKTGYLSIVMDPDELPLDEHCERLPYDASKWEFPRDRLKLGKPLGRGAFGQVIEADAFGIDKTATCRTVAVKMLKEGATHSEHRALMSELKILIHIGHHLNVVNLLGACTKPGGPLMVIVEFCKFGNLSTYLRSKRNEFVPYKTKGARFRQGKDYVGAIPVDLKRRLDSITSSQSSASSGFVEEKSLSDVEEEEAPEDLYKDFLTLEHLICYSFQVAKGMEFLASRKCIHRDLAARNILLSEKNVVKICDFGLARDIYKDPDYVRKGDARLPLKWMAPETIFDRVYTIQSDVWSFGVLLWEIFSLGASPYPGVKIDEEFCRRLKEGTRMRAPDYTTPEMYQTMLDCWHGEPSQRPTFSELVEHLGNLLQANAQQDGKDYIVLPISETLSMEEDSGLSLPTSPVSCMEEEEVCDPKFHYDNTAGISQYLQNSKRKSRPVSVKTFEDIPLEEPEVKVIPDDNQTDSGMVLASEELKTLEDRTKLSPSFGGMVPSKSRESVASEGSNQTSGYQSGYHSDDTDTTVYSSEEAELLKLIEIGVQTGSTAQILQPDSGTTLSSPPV

[11] = molecular target: T3, Receptor-type tyrosine-protein kinase FLT3 (Homo sapiens, UniProt P36888); experiment: Inhibition of FLT3 (unknown origin) by FRET-based homogeneous assay
T3 sequence (P36888 whole entry): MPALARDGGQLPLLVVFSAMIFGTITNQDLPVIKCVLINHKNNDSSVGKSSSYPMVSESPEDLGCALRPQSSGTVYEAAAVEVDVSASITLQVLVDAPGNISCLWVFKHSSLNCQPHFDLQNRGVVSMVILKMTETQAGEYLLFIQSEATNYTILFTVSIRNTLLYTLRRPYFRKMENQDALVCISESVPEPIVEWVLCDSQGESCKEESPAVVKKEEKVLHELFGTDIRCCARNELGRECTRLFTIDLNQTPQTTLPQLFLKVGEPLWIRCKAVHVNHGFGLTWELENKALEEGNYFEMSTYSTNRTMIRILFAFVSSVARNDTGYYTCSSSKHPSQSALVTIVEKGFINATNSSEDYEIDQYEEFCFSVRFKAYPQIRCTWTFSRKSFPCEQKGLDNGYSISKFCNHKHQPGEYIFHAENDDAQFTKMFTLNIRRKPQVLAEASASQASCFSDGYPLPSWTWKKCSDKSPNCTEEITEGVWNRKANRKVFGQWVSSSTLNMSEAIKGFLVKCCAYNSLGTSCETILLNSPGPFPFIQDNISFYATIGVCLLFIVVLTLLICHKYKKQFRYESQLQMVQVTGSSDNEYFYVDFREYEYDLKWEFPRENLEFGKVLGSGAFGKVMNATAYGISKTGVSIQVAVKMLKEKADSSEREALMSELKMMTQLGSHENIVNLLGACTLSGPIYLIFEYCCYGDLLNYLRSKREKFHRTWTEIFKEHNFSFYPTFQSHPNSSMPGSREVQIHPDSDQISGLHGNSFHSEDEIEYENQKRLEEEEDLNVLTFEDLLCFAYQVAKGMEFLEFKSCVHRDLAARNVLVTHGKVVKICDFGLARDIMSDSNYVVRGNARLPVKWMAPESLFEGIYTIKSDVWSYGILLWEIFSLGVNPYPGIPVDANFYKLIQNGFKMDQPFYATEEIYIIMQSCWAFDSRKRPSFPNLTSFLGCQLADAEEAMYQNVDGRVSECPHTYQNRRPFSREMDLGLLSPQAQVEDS

MDA-MB-468 [12] = experiment: Cytotoxicity against human MDA-MB-468 cells after 5 days by SRB assay; type: functional; conditions: MDA-MB-468, 120 h
MCF7 = experiment: Cytotoxicity against human MCF7 cells after 5 days by SRB assay; type: functional; conditions: MCF7, 120 h
[13] = AUC in SCID mouse at 50 mg/kg, ip after 8 hrs by LCMS/MS method; type: ADME, organism-based; design: time < 8 hr, dose 50 mg/kg, route intraperitoneal; conditions: plasma
Cytochrome P450 2C9 = Cytochrome P450 2C9 (Homo sapiens, UniProt P11712); experiment: Inhibition of CYP2C9 (unknown origin) using MFC substrate after 45 mins by fluorescence assay; type: ADME
CYP2D6 = CYP2D6 (Homo sapiens, UniProt P10635); experiment: as §1; type: ADME; conditions: probe AMMC
Sequence of CYP2D6 (P10635 whole entry): as the sequence (P10635 whole entry, the tested form may be a part) above

Cytochrome P450 2C19 = Cytochrome P450 2C19 (Homo sapiens, UniProt P33261); experiment: Inhibition of CYP2C19 (unknown origin) using MFC substrate after 30 mins by fluorescence assay; type: ADME
Sequence of Cytochrome P450 2C19 (P33261 whole entry): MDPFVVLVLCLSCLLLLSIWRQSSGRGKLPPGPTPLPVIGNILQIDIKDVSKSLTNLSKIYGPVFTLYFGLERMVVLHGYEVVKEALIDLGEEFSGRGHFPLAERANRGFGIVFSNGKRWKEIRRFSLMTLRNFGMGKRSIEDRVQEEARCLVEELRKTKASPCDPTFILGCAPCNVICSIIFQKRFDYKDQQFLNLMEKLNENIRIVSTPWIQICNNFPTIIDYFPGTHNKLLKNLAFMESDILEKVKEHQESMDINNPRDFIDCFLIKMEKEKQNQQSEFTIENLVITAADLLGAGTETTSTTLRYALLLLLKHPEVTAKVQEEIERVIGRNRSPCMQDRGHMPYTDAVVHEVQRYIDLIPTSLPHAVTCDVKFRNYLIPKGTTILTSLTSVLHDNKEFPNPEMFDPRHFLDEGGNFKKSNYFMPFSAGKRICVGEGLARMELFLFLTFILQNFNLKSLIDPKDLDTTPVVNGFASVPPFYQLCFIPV

MDA-MB-468 [14] = experiment: Antitumor activity against human MDA-MB-468 cells xenografted in mouse assessed as tumor growth inhibition at 50 mg/kg, ip QD for 21 days; type: functional, organism-based; design: dose 50 mg/kg
Cytochrome P450 1A2 = molecular target: T4, Cytochrome P450 1A2 (Homo sapiens, UniProt P05177); experiment: as §2; type: ADME
T4 sequence (P05177 whole entry): T2 sequence (P05177 whole entry)

[15] = AUC in SCID mouse at 25 mg/kg, po by LCMS/MS method; type: ADME, organism-based; design: dose 25 mg/kg, route oral; conditions: plasma
MDA-MB-231 = experiment: Cytotoxicity against human MDA-MB-231 cells after 5 days by SRB assay; type: functional; conditions: MDA-MB-231, 120 h
[16] = Cmax in SCID mouse at 25 mg/kg, po by LCMS/MS method; type: ADME, organism-based; design: dose 25 mg/kg, route oral; conditions: in vivo
[17] = Cytotoxicity against human SKBR3 cells after 5 days by SRB assay; type: functional; conditions: SK-BR-3, 120 h
Mus musculus = experiment: Toxicity in human MDA-MB-468 cells xenografted mouse assessed as reduction in body weight at 25 mg/kg, po QD for 21 days; type: organism-based; design: dose 25 mg/kg, route oral; conditions: in vivo, 504 h

half-life at 1 µM [1]	fraction unbound [2]	IC50 (Cytochrome P450 2D6)	IC50 [3]	IC50 (Cytochrome P450 3A4)	IC50 [4]	Cmax [5]	half-life at 1 µM [6]	IC50 [7]	IC50 [8]	solubility [9]	IC50 at 15 min (CYP1A2)	IC50 [10]	IC50 [11]	AUC at 8 h [13]	IC50 (Cytochrome P450 2C9)	IC50 (Cytochrome P450 2C19)	IC50 (Cytochrome P450 1A2)	SMILES	GI50 (MDA-MB-468 [12])	GI50 (MCF7)	other results
6 min	0.011	20000 nM	2.4 nM	1000 nM	> 100000 nM	< 10 ng/mL	29 min	> 100000 nM	> 100000 nM	0.21 µg/mL (≈ 0.576 µM)	> 10000 nM	34 nM	35 nM	–	–	–	–	O=C1Nc2ccccc2/C1=C\c1ccc2c(/C=C/c3ccncc3)n[nH]c2c1	–	–	IC50 (Aurora kinase B): 24 nM
7 min	0.016	–	4 nM	940 nM	–	870 ng/mL	40 min	–	–	< 0.1 µg/mL	> 10000 nM	–	35 nM	830 ng·h/mL	1400 nM	–	–	CN(C)Cc1ccc(/C=C/c2n[nH]c3cc(/C=C4/C(=O)Nc5ccccc54)ccc23)cc1	12 nM	7 nM	–
2 min	0.009	–	7.3 nM	> 1000 nM	–	90 ng/mL	14 min	–	–	< 0.1 µg/mL	> 10000 nM	–	–	190 ng·h/mL	1600 nM	800 nM	–	COc1ccc2c(c1)/C(=C\c1ccc3c(/C=C/c4ccc(N5CCN(C)CC5)nc4)n[nH]c3c1)C(=O)N2	–	< 10 nM	IC50 at 45 min (CYP2D6): > 10000 nM
–	–	–	–	–	–	–	–	–	–	–	–	–	–	–	–	–	–	Cc1cc(Nc2cc(N3CCN(C)CC3)nc(Sc3ccc(NC(=O)C4CC4)cc3)n2)n[nH]1	–	–	TGI (MDA-MB-468 [14]): 73%
49 min	0.17	> 10000 nM	–	> 10000 nM	–	1200 ng/mL	> 60 min	–	–	8 µg/mL (≈ 29.1 µM)	–	> 10000 nM	3200 nM	1620 ng·h/mL	> 10000 nM	10000 nM	> 10000 nM	O=C1Nc2ccccc2[C@]12C[C@H]2c1ccc2cn[nH]c2c1 (relative stereo)	14000 nM	16000 nM	–
18 min	0.045	700 nM	–	> 1000 nM	> 100000 nM	1700 ng/mL	> 60 min	> 100000 nM	> 100000 nM	0.4 µg/mL (≈ 1.06 µM)	–	1300 nM	33 nM	2900 ng·h/mL	30 nM	260 nM	1400 nM	O=C1Nc2ccccc2[C@]12C[C@H]2c1ccc2c(/C=C/c3ccncc3)n[nH]c2c1 (relative stereo)	360 nM	600 nM	AUC [15]: 650 ng·h/mL; GI50 (MDA-MB-231): 680 nM; Cmax [16]: 470 ng/mL; GI50 [17]: 20300 nM
13 min	0.053	3100 nM	–	> 10000 nM	> 100000 nM	2600 ng/mL	> 60 min	> 100000 nM	> 100000 nM	1.7 µg/mL (≈ 3.91 µM)	–	110 nM	–	7200 ng·h/mL	> 1000 nM	> 1000 nM	> 10000 nM	CN(C)Cc1ccc(/C=C/c2n[nH]c3cc([C@@H]4C[C@@]45C(=O)Nc4ccccc45)ccc23)cc1 (relative stereo)	< 10 nM	< 10 nM	AUC [15]: 310 ng·h/mL; GI50 (MDA-MB-231): < 10 nM; Cmax [16]: 290 ng/mL; Activity (Mus musculus): Non-toxic; GI50 [17]: 17800 nM
–	–	> 10000 nM	–	> 1000 nM	–	–	–	–	–	–	–	910 nM	19 nM	–	850 nM	750 nM	> 10000 nM	COc1ccc2c(c1)[C@]1(C[C@H]1c1ccc3c(/C=C/c4ccc(CN(C)C)cc4)n[nH]c3c1)C(=O)N2 (relative stereo)	10 nM	< 1 nM	AUC [15]: 730 ng·h/mL; GI50 (MDA-MB-231): < 10 nM; Cmax [16]: 350 ng/mL; Activity (Mus musculus): Non-toxic; GI50 [17]: 6400 nM
